Results as given in the NIST ThermoML archive (doi:10.1016/j.jct.2015.09.012).

Assays:
[1] = molar heat capacity at constant pressure; xn = mol fraction of the nth substance listed; settings: 100 kPa, Liquid, Large sample (1 g) DSC
[2] = molar heat capacity at constant pressure; settings: Liquid
[3] = 298.15 K; 101.33 kPa; Liquid; Vibrating tube method

CCO [ethanol] + CC12CCC(CC1)C(C)(C)O2
[1], x2 = 0
Settings | molar heat capacity at constant pressure [J/K/mol]
304.7 K | 115.3
309.6 K | 117.3
314.6 K | 119.6
319.5 K | 121.9
324.5 K | 124.2

CC12CCC(CC1)C(C)(C)O2 [1,3,3-trimethyl-2-oxabicyclo[2.2.2]octane]
[2]
Settings | molar heat capacity at constant pressure [J/K/mol]
293.26 K, 101.33 kPa, Small sample (50 mg) DSC | 266.9
303.48 K, 101.33 kPa, Small sample (50 mg) DSC | 273
304.7 K, 100 kPa, Large sample (1 g) DSC | 273.3
309.6 K, 100 kPa, Large sample (1 g) DSC | 276.4
313.71 K, 101.33 kPa, Small sample (50 mg) DSC | 279.5
314.6 K, 100 kPa, Large sample (1 g) DSC | 279.5
319.5 K, 100 kPa, Large sample (1 g) DSC | 282.6
323.93 K, 101.33 kPa, Small sample (50 mg) DSC | 285.2
324.5 K, 100 kPa, Large sample (1 g) DSC | 285.1
334.16 K, 101.33 kPa, Small sample (50 mg) DSC | 290.8
344.38 K, 101.33 kPa, Small sample (50 mg) DSC | 297.7

Settings | mass density [kg/m3]
[3] | 920.51

CCO [ethanol]
[2], 100 kPa, Large sample (1 g) DSC
Settings | molar heat capacity at constant pressure [J/K/mol]
304.7 K | 115.3
309.6 K | 117.3
314.6 K | 119.6
319.5 K | 121.9
324.5 K | 124.2

Settings | mass density [kg/m3]
[3] | 785.2

CC12CCC(CC1)C(C)(C)O2 [1,3,3-trimethyl-2-oxabicyclo[2.2.2]octane] + CCO
molar heat capacity at constant pressure [J/K/mol], [1]
Settings | 304.7 K | 309.6 K | 314.6 K | 319.5 K | 324.5 K
x1 = 0.0506 | 123.9 | 126.2 | 128.6 | 131.1 | 133.5
x1 = 0.099 | 132 | 134.6 | 137.1 | 139.7 | 142.1
x1 = 0.1999 | 149 | 151.8 | 154.6 | 157.1 | 160
x1 = 0.3007 | 166 | 169 | 171.8 | 174.9 | 177.7
x1 = 0.3956 | 181.7 | 184.9 | 188.1 | 191.1 | 194.1
x1 = 0.5002 | 199.4 | 202.5 | 205.5 | 208.5 | 211.3
x1 = 0.5975 | 214.3 | 217.4 | 221.5 | 224.5 | 227.4
x1 = 0.7017 | 231.6 | 235.1 | 238 | 241.2 | 244.1
x1 = 0.8065 | 247.2 | 250.5 | 253.6 | 256.7 | 259.3
x1 = 0.8964 | 259.8 | 263.7 | 267 | 269.9 | 272.5
x1 = 0.9501 | 267 | 269.9 | 273.4 | 275.8 | 279
x1 = 1 | 273.3 | 276.4 | 279.5 | 282.6 | 285.1
